Where two headings read alike, the source gives them in different places.
Experiments:
[1] = tested on: E2F1 checkpoint pathway; details: earlier studies with β-lapachone; cited from earlier work
[2] = tested on: normal fresh or proliferating human PBMC; details: cited from earlier work
[3] = tested on: human cancer cell lines; details: single agent; typical range; read-out: antineoplastic activity against human cancer cell lines (IC50); cited from earlier work
[4] = tested on: A549 human lung carcinoma cells; assay: MTS cell viability assay, A549 lung carcinoma cells; assay type: cell-based; details: read-out: IC50 Values, Cancerous Cells, Lung A549
Procedure: (§1) Cell viability was determined by measuring the activity of dehydrogenase enzymes in metabolically active cells using a tetrazolium compound, MTS. The assay was performed as described in Promega Technical Bulletin No. 169 (CellTiter 96 Aqueous Non-Radioactive Cell Proliferation Assay): All cells lines were grown in DMEM media (4.5 g/L glucose) supplemented with 15% heat-inactivated FBS, 10 mM L-glutamine, and 10 mM HEPES. Briefly, cells were seeded in 96-well plates and incubated for 16 to 24 hours; test compounds were serially diluted in DMSO, further diluted in cell culture media, then added to cells (final DMSO concentration of 0.33% v/v); cells were incubated in the presence of compound for 4 hours; MTS was added to the cells and incubated for four hours; SDS was added to a final concentration of 1.4% v/v and absorbance at 490 nm was measured within two hours using a plate reader. The amount of […] absorbance was directly proportional to the number of living cells in the culture.
(§2) The assays of the present invention as shown in Table 1 and methods of measuring induction of E2F1 activity and elevation of E2F1 levels can be carried out following the descriptions found in Li et al., (2003) Proc Natl Acad Sci USA. 100(5): 2674-8 and U.S. Patent Application Publication No. 2002/0169135, both incorporated herein by reference.

[5] = tested on: NCM-460 normal colon epithelial cells; assay: MTS cell viability assay, NCM-460 normal colon cells; assay type: cell-based; details: for IC50: Homo sapiens, read-out: IC50 Values, Normal Cells, Colon NCM-460; for Fold Selectivity (NCM-460/DLD1): ratio of IC50 NCM-460 to IC50 DLD-1
Procedure: Since β-lapachone induces cell death only in cancer cell lines and not in normal cells (Li et al., (2003) Proc Natl Acad Sci USA. 100(5): 2674-8), the present compounds were also tested in a panel of normal cell lines from a variety of tissues including NCM-460 normal colon epithelial cells.
as §1, §2

[6] = tested on: DLD-1 human colon carcinoma cells; assay: MTS cell viability assay, DLD-1 colon carcinoma cells; assay type: cell-based; details: read-out: IC50 Values, Cancerous Cells, Colon DLD-1
Procedure: as §1, §2

[7] = tested on: K-562 human leukemia cells; assay: MTS cell viability assay, K-562 leukemia cells; assay type: cell-based; details: read-out: IC50 Values, Cancerous Cells, Leukemia K-562
Procedure: as §1, §2

[8] = tested on: DU-145 human prostate carcinoma cells; assay: MTS cell viability assay, DU-145 prostate carcinoma cells; assay type: cell-based; details: read-out: IC50 Values, Cancerous Cells, Prostate DU-145
Procedure: as §1, §2

[9] = tested on: PACA-2 human pancreatic carcinoma cells; assay: MTS cell viability assay, PACA-2 pancreatic carcinoma cells; assay type: cell-based; details: read-out: IC50 Values, Cancerous Cells, Pancreas PACA-2
Procedure: as §1, §2

[10] = A549, 4 hours with compound, MTS
[11] = NCM460, NCM-460, 4 hours with compound, MTS
[12] = DLD-1, 4 hours with compound, MTS
[13] = K562, K-562, 4 hours with compound, MTS
[14] = DU-145, 4 hours with compound, MTS
[15] = PACA-2, 4 hours with compound, MTS

IC50 [4, 10] [µM]	IC50 [6, 12] [µM]	IC50 [7, 13] [µM]	IC50 [8, 14] [µM]	IC50 [9, 15] [µM]	SMILES	IC50 [5, 11] [µM]	Fold Selectivity (NCM-460/DLD1) [5]	also measured
–	–	–	–	–	CC1(C)CCC2=C(O1)c1ccccc1C(=O)C2=O [β-lapachone, 3,4-dihydro-2,2-dimethyl-2H-naphtho[1,2-b]pyran-5,6-dione]	–	–	activation of E2F1 checkpoint pathway in nuclei of cancer cells but not in normal cells [1]: induces activation of E2F1 checkpoint pathway; cytotoxic effects on normal human PBMC [2]: No cytotoxic effects; IC50 [3]: 1 to 10 µM
–	–	–	–	–	COC(=O)C1(C)CSC2=C(O1)c1ccccc1C(=O)C2=O (stereo not shown)	–	–	melting point: 188 to 189 °C
4.66	2.17	1.51	3.72	1.68	CC(C)NC(=O)OCC1CSC2=C(O1)c1ccccc1C(=O)C2=O (stereo not shown) [Compound 12, (5,6-dioxo-2,3,5,6-tetrahydronaphtho[1,2-b][1,4]oxathiin-2-yl)methyl isopropylcarbamate]	5.92	2.7	–
11.3	2.95	3.89	4.22	2.75	O=C1C(=O)c2ccccc2C2=C1SCC(CNCc1ccccc1)O2 (stereo not shown) [Compound 7, 2-[(benzylamino)methyl]-2,3-dihydronaphtho[1,2-b][1,4]oxathiine-5,6-dione]	11.4	3.9	–
–	–	–	–	–	CC(C)NC(=O)CN1CCN(CC2CSC3=C(O2)c2ccccc2C(=O)C3=O)CC1 (stereo not shown) [Compound 8, 2-{4-[(5,6-dioxo-2,3,5,6-tetrahydronaphtho[1,2-b][1,4]oxathiin-2-yl)methyl]piperazin-1-yl}-N-isopropylacetamide]	–	–	melting point: 85 to 87 °C
–	–	–	–	–	O=C1C(=O)c2ccccc2C2=C1SCC(CN1CCC3(CC1)OCCO3)O2 (stereo not shown) [Compound 9, 2-(1,4-dioxa-8-azaspiro[4.5]dec-8-ylmethyl)-2,3-dihydronaphtho[1,2-b][1,4]oxathiine-5,6-dione]	–	–	melting point: 202 to 204 °C
–	–	–	–	–	O=C1C(=O)c2ccccc2C2=C1SCC(CN1CCC(O)CC1)O2 (stereo not shown) [Compound 3, 2-[(4-hydroxypiperidin-1-yl)methyl]-2,3-dihydronaphtho[1,2-b][1,4]oxathiine-5,6-dione]	–	–	melting point: 98 to 100 °C
4.77	1.84	2.93	4.01	1.95	CCOC(=O)N1CCN(CC2CSC3=C(O2)c2ccccc2C(=O)C3=O)CC1 (stereo not shown) [Compound 1, ethyl 4-[(5,6-dioxo-2,3,5,6-tetrahydronaphtho[1,2-b][1,4]oxathiin-2-yl)methyl]piperazine-1-carboxylate]	4.78	2.6	–
4.79	1.57	2.68	1.49	1.34	O=C1C(=O)c2ccccc2C2=C1SCC(CN1CCN(c3ccc(F)cc3)CC1)O2 (stereo not shown) [Compound 5, -{[4-(4-fluorophenyl)piperazin-1-yl]methyl}-2,3-dihydronaphtho[1,2-b][1,4]oxathiine-5,6-dione]	9.83	6.3	–
–	–	–	–	–	COC(CN(C)CC1CSC2=C(O1)c1ccccc1C(=O)C2=O)OC (stereo not shown) [Compound 4, 2-{[(2,2-dimethoxyethyl)(methyl)amino]methyl}-2,3-dihydronaphtho[1,2-b][1,4]oxathiine-5,6-dione]	–	–	melting point: 80 to 82 °C
12.9	4.01	5.29	4.67	3.78	O=C1C(=O)c2ccccc2C2=C1SCC(CNCCc1ccccc1)O2 (stereo not shown) [Compound 6, 2-{[(2-phenylethyl)amino]methyl}-2,3-dihydronaphtho[1,2-b][1,4]oxathiine-5,6-dione]	17.1	4.3	–
11.7	2.05	2.84	3.88	1.64	O=C1C(=O)c2ccccc2C2=C1SCC(CN1CCC(CO)CC1)O2 (stereo not shown) [Compound 2, 2-{[4-(hydroxymethyl)piperidin-1-yl]methyl}-2,3-dihydronaphtho[1,2-b][1,4]oxathiine-5,6-dione]	10.8	5.3	–
5.44	1.36	2.73	4.05	2.05	O=C(Nc1ccccc1)OCC1CSC2=C(O1)c1ccccc1C(=O)C2=O (stereo not shown) [Compound 11, (5,6-dioxo-2,3,5,6-tetrahydronaphtho[1,2-b][1,4]oxathiin-2-yl)methyl phenylcarbamate]	7.65	5.6	–
> 100	32.8	58.2	> 100	32.4	CC1CSC2=C(O1)c1cc(N3CCCCC3)ccc1C(=O)C2=O (stereo not shown) [Compound 15, 2-methyl-9-piperidin-1-yl-2,3-dihydronaphtho[1,2-b][1,4]oxathiine-5,6-dione]	33.6	1.0	–
–	–	–	–	–	CCCC1CCOC2=C(S1)C(=O)C(=O)c1ccccc12 (stereo not shown) [Compound 13, 4-propyl-3,4-dihydro-2H-naphtho[1,2-b][1,4]oxathiepine-6,7-dione]	–	1.4	IC50 ([4]; A549, 4 h): > 100 µM; IC50 ([5]; NCM460, 4 h): 18.6 µM; IC50 ([6]; DLD-1, 4 h): 12.9 µM; IC50 ([7]; K562, 4 h): 10.9 µM; IC50 ([8]; DU-145, 4 h): 13.2 µM; IC50 ([9]; PaCa-2, 4 h): 12.1 µM
5.08	2.39	2.89	3.82	2.04	O=C1C(=O)c2ccccc2C2=C1SCC(COc1cccnc1)O2 (stereo not shown) [Compound 17, 2-[(pyridin-3-yloxy)methyl]-2,3-dihydronaphtho[1,2-b][1,4]oxathiine-5,6-dione]	5.61	2.3	–
> 100	3.8	4.61	3.79	3.39	CC1CSC2=C(O1)c1cc(-c3ccccc3)ccc1C(=O)C2=O (stereo not shown) [Compound 14, 2-methyl-9-phenyl-2,3-dihydronaphtho[1,2-b][1,4]oxathiine-5,6-dione]	10.1	2.7	–
